Values after ≈ are worked out from the molar mass of the structure shown. Active and inactive are the calls of the source. The calls are words filed in the database; no cut-off is given here.
Legend:
[1] = test system: Pseudomonas aeruginosa; experiment: Antimicrobial activity against Pseudomonas aeruginosa MTCC 741 by paper disk diffusion method; format: functional
[2] = test system: Klebsiella pneumoniae; experiment: Antimicrobial activity against Klebsiella pneumoniae MTCC 109 by agar streak dilution method; format: functional
[3] = test system: Bacillus cereus; experiment: Antimicrobial activity against Bacillus cereus MTCC 619 by agar streak dilution method; format: functional
[4] = test system: Aspergillus fumigatus; experiment: Antimicrobial activity against Aspergillus fumigatus MTCC 343 by agar streak dilution method; format: functional
[5] = test system: Proteus vulgaris; experiment: Antimicrobial activity against Proteus vulgaris MTCC 1771 by agar streak dilution method; format: functional
[6] = test system: Staphylococcus aureus; experiment: Antimicrobial activity against Staphylococcus aureus MTCC 96 by paper-disk diffusion method; format: functional
[7] = test system: Salmonella typhi; experiment: Antimicrobial activity against Salmonella enterica subsp. enterica serovar Typhi MTCC 733 by paper disk diffusion method; format: functional
[8] = test system: Aspergillus clavatus; experiment: Antimicrobial activity against Aspergillus clavatus MTCC 1323 by agar streak dilution method; format: functional
[9] = test system: Proteus vulgaris; experiment: Antimicrobial activity against Proteus vulgaris MTCC 1771 by paper disk diffusion method; format: functional
[10] = test system: Escherichia coli; experiment: Antimicrobial activity against Escherichia coli MTCC 739 by agar streak dilution method; format: functional
[11] = test system: Shigella flexneri; experiment: Antimicrobial activity against Shigella flexneri MTCC 1457 by agar streak dilution method; format: functional
[12] = test system: Pseudomonas aeruginosa; experiment: Antimicrobial activity against Pseudomonas aeruginosa MTCC 741 at 100 ug/ml by paper disk diffusion method; format: functional, organism-based
[13] = test system: Pseudomonas aeruginosa; experiment: Antimicrobial activity against Pseudomonas aeruginosa MTCC 741 by agar streak dilution method; format: functional
[14] = test system: Shigella flexneri; experiment: Antimicrobial activity against Shigella flexneri MTCC 1457 by paper disk diffusion method; format: functional
[15] = test system: Aspergillus fumigatus; experiment: Antimicrobial activity against Aspergillus fumigatus MTCC 343 by paper-disk diffusion method; format: functional
[16] = test system: Salmonella typhi; experiment: Antimicrobial activity against Salmonella enterica subsp. enterica serovar Typhi MTCC 733 by agar streak dilution method; format: functional
[17] = test system: Mycobacterium tuberculosis; experiment: Antimicrobial activity against Mycobacterium tuberculosis H37Rv by BACTEC MGIT method; format: functional; conditions: for MIC: Mycobacterium tuberculosis, H37Rv
[18] = test system: Bacillus cereus; experiment: Antimicrobial activity against Bacillus cereus MTCC 619 by paper disk diffusion method; format: functional
[19] = test system: Staphylococcus aureus; experiment: Antimicrobial activity against Staphylococcus aureus MTCC 96 by agar streak dilution method; format: functional
[20] = test system: Mycobacterium tuberculosis; experiment: Antimicrobial activity against Mycobacterium tuberculosis H37Rv by Lowenstein and Jensen method; format: functional; conditions: for MIC: Mycobacterium tuberculosis, H37Rv
[21] = test system: Aspergillus clavatus; experiment: Antimicrobial activity against Aspergillus clavatus MTCC 1323 by paper disk diffusion method; format: functional
[22] = test system: Klebsiella pneumoniae; experiment: Antimicrobial activity against Klebsiella pneumoniae MTCC 109 by paper disk diffusion method; format: functional
[23] = test system: Candida albicans; experiment: Antimicrobial activity against Candida albicans MTCC 183 by paper-disk diffusion method; format: functional
[24] = test system: Escherichia coli; experiment: Antimicrobial activity against Escherichia coli MTCC 739 by paper disk diffusion method; format: functional
[25] = test system: Aspergillus niger; experiment: Antimicrobial activity against Aspergillus niger MTCC 282 by paper-disk diffusion method; format: functional
[26] = test system: Candida albicans; experiment: Antimicrobial activity against Candida albicans MTCC 183 by agar streak dilution method; format: functional
[27] = test system: Aspergillus niger; experiment: Antimicrobial activity against Aspergillus niger MTCC 282 by agar streak dilution method; format: functional
[28] = test system: Mycobacterium tuberculosis; experiment: Antimicrobial activity against Mycobacterium tuberculosis H37Rv at 100 ug/ml by BACTEC MGIT method; format: functional, organism-based

SMILES | inhibition zone (IZ) [1] [mm] | MIC [2] [µg/mL] | MIC [3] [µg/mL] | MIC [4] [µg/mL] | MIC [5] [µg/mL] | inhibition zone (IZ) [6] [mm] | inhibition zone (IZ) [7] [mm] | MIC [8] [µg/mL] | inhibition zone (IZ) [9] [mm] | MIC [10] [µg/mL] | MIC [11] [µg/mL] | inhibition zone (IZ) [12] | MIC [13] [µg/mL] | inhibition zone (IZ) [14] [mm] | inhibition zone (IZ) [15] [mm] | MIC [16] [µg/mL] | inhibition (INH) [17] [%] | MIC [17] [µg/mL] | inhibition zone (IZ) [18] [mm] | MIC [19] [µg/mL] | other results
N#Cc1ccc(Nc2nc(Oc3ncnc4ccccc34)nc(N3CCN(c4cccc(Cl)c4Cl)CC3)n2)cc1C(F)(F)F | 24 | 50 (≈ 78.3 µM) | 6.25 (≈ 9.79 µM) | 25 (≈ 39.2 µM) | 6.25 (≈ 9.79 µM) | 29 | 26 | 25 (≈ 39.2 µM) | 26 | 50 (≈ 78.3 µM) | 12.5 (≈ 19.6 µM) | inactive | 12.5 (≈ 19.6 µM) | 26 | 23 | 12.5 (≈ 19.6 µM) | 99 | 6.25 (≈ 9.79 µM) | 25 | 3.12 (≈ 4.89 µM) | inhibition (percent inhibition) [20]: 99%; MIC [20]: 6.25 µg/mL (≈ 9.79 µM); inhibition zone (IZ) [21]: 23 mm; inhibition zone (IZ) [22]: 24 mm; inhibition zone (IZ) [23]: 27 mm; inhibition zone (IZ) [24]: 24 mm; inhibition zone (IZ) [25]: 25 mm; MIC [26]: 6.25 µg/mL (≈ 9.79 µM); MIC [27]: 6.25 µg/mL (≈ 9.79 µM)
N#Cc1ccc(Nc2nc(Oc3ncnc4ccccc34)nc(N3CCN(c4ccc(F)cc4)CC3)n2)cc1C(F)(F)F | 28 | 25 (≈ 42.6 µM) | 12.5 (≈ 21.3 µM) | 12.5 (≈ 21.3 µM) | 12.5 (≈ 21.3 µM) | 28 | 27 | 12.5 (≈ 21.3 µM) | 24 | 25 (≈ 42.6 µM) | 50 (≈ 85.1 µM) | inactive | 6.25 (≈ 10.6 µM) | 23 | 24 | 6.25 (≈ 10.6 µM) |  | > 6.25 | 26 | 6.25 (≈ 10.6 µM) | inhibition (percent inhibition) [20]: 98%; MIC [20]: 12.5 µg/mL (≈ 21.3 µM); inhibition zone (IZ) [21]: 24 mm; inhibition zone (IZ) [22]: 23 mm; inhibition zone (IZ) [23]: 27 mm; inhibition zone (IZ) [24]: 25 mm; inhibition [28]: inactive; inhibition zone (IZ) [25]: 25 mm; MIC [26]: 6.25 µg/mL (≈ 10.6 µM); MIC [27]: 12.5 µg/mL (≈ 21.3 µM)
N#Cc1ccc(Nc2nc(Oc3ncnc4ccccc34)nc(N3CCN(C(c4ccccc4)c4ccc(Cl)cc4)CC3)n2)cc1C(F)(F)F (stereo not given) | 28 | 25 (≈ 36 µM) | 6.25 (≈ 9 µM) | 12.5 (≈ 18 µM) | 50 (≈ 72 µM) | 29 | 27 | 12.5 (≈ 18 µM) | 23 | 25 (≈ 36 µM) | 50 (≈ 72 µM) | inactive | 6.25 (≈ 9 µM) | 24 | 24 | 6.25 (≈ 9 µM) | 99 | 6.25 (≈ 9 µM) | 26 | 6.25 (≈ 9 µM) | inhibition (percent inhibition) [20]: 99%; MIC [20]: 6.25 µg/mL (≈ 9 µM); inhibition zone (IZ) [21]: 24 mm; inhibition zone (IZ) [22]: 24 mm; inhibition zone (IZ) [23]: 24 mm; inhibition zone (IZ) [24]: 26 mm; inhibition zone (IZ) [25]: 24 mm; MIC [26]: 25 µg/mL (≈ 36 µM); MIC [27]: 12.5 µg/mL (≈ 18 µM)
N#Cc1ccc(Nc2nc(Oc3ncnc4ccccc34)nc(N3CCN(c4cccc(C(F)(F)F)c4)CC3)n2)cc1C(F)(F)F | 28 | 6.25 (≈ 9.8 µM) | 3.12 (≈ 4.89 µM) | 12.5 (≈ 19.6 µM) | 6.25 (≈ 9.8 µM) | 29 | 25 | 6.25 (≈ 9.8 µM) | 26 | 25 (≈ 39.2 µM) | 12.5 (≈ 19.6 µM) | inactive | 6.25 (≈ 9.8 µM) | 27 | 24 | 25 (≈ 39.2 µM) | 99 | 6.25 (≈ 9.8 µM) | 28 | 3.12 (≈ 4.89 µM) | inhibition (percent inhibition) [20]: 99%; MIC [20]: 6.25 µg/mL (≈ 9.8 µM); inhibition zone (IZ) [21]: 25 mm; inhibition zone (IZ) [22]: 25 mm; inhibition zone (IZ) [23]: 27 mm; inhibition zone (IZ) [24]: 25 mm; inhibition zone (IZ) [25]: 26 mm; MIC [26]: 6.25 µg/mL (≈ 9.8 µM); MIC [27]: 3.12 µg/mL (≈ 4.89 µM)
CO[C@H]1/C=C/O[C@@]2(C)Oc3c(C)c(O)c4c(O)c(c(/C=N/N5CCN(C)CC5)c(O)c4c3C2=O)NC(=O)/C(C)=C\C=C\[C@H](C)[C@H](O)[C@@H](C)[C@@H](O)[C@@H](C)[C@H](OC(C)=O)[C@@H]1C [RIFAMPIN] |  |  |  |  |  |  |  |  |  |  |  |  |  |  |  |  | 99 | 0.25 (≈ 0.304 µM) |  |  | 
NC(=O)c1cnccn1 [PYRAZINAMIDE] |  |  |  |  |  |  |  |  |  |  |  |  |  |  |  |  | 99 | 6.25 (≈ 50.8 µM) |  |  | 

Source: ChEMBL document CHEMBL3044572, “Discovery of 2-(4-cyano-3-trifluoromethylphenyl amino)-4-(4-quinazolinyloxy)-6-piperazinyl(piperidinyl)-s-triazines as potential antibacterial agents” (2012)
